Assay results: US20080176813A1, “CARBOCYCLIC NUCLEOSIDES AND PROCESS FOR OBTAINING SUCH” (STICHTING REGA VZW, priority 1999, published 2008)
≈ marks a conversion by molar mass, not a printed value. Like-named read-outs stand apart in the source and are kept apart here.

What was measured:
HSV-2 (196) = experiment: Antiviral activity, virus-induced cytopathogenicity in E6SM cell cultures; type: cell-based; conditions: for IC50: Human alphaherpesvirus 2, read-out: Activity: minimum inhibitory concentration required to reduce virus-induced cytopathogenicity by 50% (IC50), E6SM cell cultures; for Selectivity index: E6SM
Description: (§1) The anti-herpesvirus activity of D-cyclohexene G and L-cyclohexene G and the respective adenine analogues was determined in human embryonic skin muscle fibroblast (E6SM: HSV-1, HSV-2) and in human embryonic lung (HEL) cells [varicella-zoster virus (VZV), cytomegalovirus (CMV)] (Table I).

HSV-1 (TK−KOS ACVf) = experiment: as above; type: cell-based; conditions: for IC50: Human alphaherpesvirus 1, E6SM, read-out: Activity: minimum inhibitory concentration required to reduce virus-induced cytopathogenicity by 50% (IC50); for Selectivity index: HSV-1 (TK−KOS ACVf), E6SM
Description: as §1

HSV-2 (G) = experiment: as above; type: cell-based; conditions: for IC50: Human alphaherpesvirus 2, read-out: Activity: minimum inhibitory concentration required to reduce virus-induced cytopathogenicity by 50% (IC50), E6SM cell cultures; for Selectivity index: E6SM
Description: as §1

HSV-1 (KOS) = experiment: as above; type: cell-based; conditions: for IC50: Human alphaherpesvirus 1, read-out: Activity: minimum inhibitory concentration required to reduce virus-induced cytopathogenicity by 50% (IC50), E6SM cell cultures; for Selectivity index: E6SM
Description: as §1

HSV-2 (Lyons) = experiment: as above; type: cell-based; conditions: for IC50: Human alphaherpesvirus 2, read-out: Activity: minimum inhibitory concentration required to reduce virus-induced cytopathogenicity by 50% (IC50), E6SM cell cultures; for Selectivity index: E6SM
Description: as §1

HSV-1 (TK−/TKf VMW1837) = experiment: as above; type: cell-based; conditions: for IC50: Human alphaherpesvirus 1, E6SM, read-out: Activity: minimum inhibitory concentration required to reduce virus-induced cytopathogenicity by 50% (IC50); for Selectivity index: HSV-1 (TK−/TKf VMW1837), E6SM
Description: as §1

HSV-1 (F) = experiment: as above; type: cell-based; conditions: for IC50: Human alphaherpesvirus 1, read-out: Activity: minimum inhibitory concentration required to reduce virus-induced cytopathogenicity by 50% (IC50), E6SM cell cultures; for Selectivity index: E6SM
Description: as §1

HSV-1 (McIntyre) = experiment: as above; type: cell-based; conditions: for IC50: Human alphaherpesvirus 1, read-out: Activity: minimum inhibitory concentration required to reduce virus-induced cytopathogenicity by 50% (IC50), E6SM cell cultures; for Selectivity index: E6SM
Description: as §1

VZV (YS) = experiment: Antiviral activity, virus plaque formation in HEL cells; type: cell-based, varicella-zoster virus; conditions: for Selectivity index: HEL
Description: as §1

HEL [1] = experiment: Cytotoxicity, cell growth; conditions: HEL (footnote b)
HeLa = experiment: Cytotoxicity, alteration of cell morphology; type: cell-based
Vero = experiment: Cytotoxicity, alteration of cell morphology; type: cell-based
VZV (OKA) = experiment: microbe, parasite or virus in culture; type: cell-based, varicella-zoster virus; conditions: for IC50: Human alphaherpesvirus 3, HEL, read-out: Activity: inhibitory concentration required to reduce virus plaque formation by 50% (IC50); for Selectivity index: VZV (OKA), HEL
Description: as §1

VZV (TK−07/1) = experiment: microbe, parasite or virus in culture; type: cell-based, varicella-zoster virus; conditions: for IC50: Human alphaherpesvirus 3, HEL, read-out: Activity: inhibitory concentration required to reduce virus plaque formation by 50% (IC50); for Selectivity index: VZV (TK−07/1), HEL
Description: as §1

VZV (TK−YS/R) = experiment: microbe, parasite or virus in culture; type: cell-based, varicella-zoster virus; conditions: for IC50: Human alphaherpesvirus 3, HEL, read-out: Activity: inhibitory concentration required to reduce virus plaque formation by 50% (IC50); for Selectivity index: VZV (TK−YS/R), HEL
Description: as §1

[2] = Cytotoxicity, alteration of cell morphology
Description: as §1

HEL [3] = experiment: Cytotoxicity, HEL (footnote c not given); conditions: HEL (footnote c, not defined)
Description: as §1

CMV (AD 169) = experiment: Antiviral activity, virus plaque formation in HEL cells; type: cell-based, cytomegalovirus; conditions: for IC50: Human betaherpesvirus 5, read-out: Activity: inhibitory concentration required to reduce virus plaque formation by 50% (IC50), HEL cells, virus input 20 PFU; for Selectivity index: HEL
Description: as §1

CMV (Davis) = experiment: as above; type: cell-based, cytomegalovirus; conditions: for IC50: Human betaherpesvirus 5, read-out: Activity: inhibitory concentration required to reduce virus plaque formation by 50% (IC50), HEL cells, virus input 20 PFU; for Selectivity index: HEL
Description: as §1

VZV and CMV = experiment: Potency against VZV and CMV; type: cell-based
Description: as §1

[4] = Human alphaherpesvirus 3, read-out: Activity: inhibitory concentration required to reduce virus plaque formation by 50% (IC50), VZV (YS), HEL cells, virus input 20 PFU

| Structure (SMILES) | IC50 (HSV-2 (196)) [µg/mL] | IC50 (HSV-1 (TK−KOS ACVf)) [µg/mL] | IC50 (HSV-2 (G)) [µg/mL] | IC50 (HSV-1 (KOS)) [µg/mL] | IC50 (HSV-2 (Lyons)) [µg/mL] | IC50 (HSV-1 (TK−/TKf VMW1837)) [µg/mL] | IC50 (HSV-1 (F)) [µg/mL] | IC50 (HSV-1 (McIntyre)) [µg/mL] | IC50 (VZV (YS); [4]) [µg/mL] | Cytotoxic concentration required to reduce cell growth by 50% (HEL [1]) [µg/mL] | Minimum cytotoxic concentration causing a microscopically detectable alteration of cell morphology (HeLa) | Minimum cytotoxic concentration causing a microscopically detectable alteration of cell morphology (Vero) | IC50 (VZV (OKA)) [µg/mL] | IC50 (VZV (TK−07/1)) [µg/mL] | IC50 (VZV (TK−YS/R)) [µg/mL] | Minimum cytotoxic concentration causing a microscopically detectable alteration of cell morphology ([2]; E8SM) | Cytotoxicity (concentration) (HEL [3]) [µg/mL] | IC50 (CMV (AD 169)) [µg/mL] | IC50 (CMV (Davis)) [µg/mL] | further results |
| --- | --- | --- | --- | --- | --- | --- | --- | --- | --- | --- | --- | --- | --- | --- | --- | --- | --- | --- | --- | --- |
| Nc1nc2c(ncn2COCCO)c(=O)[nH]1 [Acyclovir, reference compound] | 0.02 (≈ 0.0888 µM) | 9.6 (≈ 42.6 µM) | 0.02 (≈ 0.0888 µM) | 0.01 (≈ 0.0444 µM) | 0.02 (≈ 0.0888 µM) | 0.07 (≈ 0.311 µM) | 0.003 (≈ 0.0133 µM) | 0.005 (≈ 0.0222 µM) | 1.1 (≈ 4.88 µM) |  |  |  |  |  |  |  |  |  |  |  |
| O=c1[nH]c(=O)n([C@H]2C[C@H](O)[C@@H](CO)O2)cc1/C=C/Br [Brivudin, reference compound] | > 80 | > 80 | > 80 | 0.001 (≈ 0.003 µM) | > 80 | > 80 | 0.001 (≈ 0.003 µM) | 0.001 (≈ 0.003 µM) |  | >50 | ≧400 μg/ml | ≧400 μg/ml | 0.003 (≈ 0.00901 µM) | > 20 | > 50 | ≧400 μg/ml | >200 |  |  | IC50 (VZV (YS); Human alphaherpesvirus 3, HEL, read-out: Activity: inhibitory concentration required to reduce virus plaque formation by 50% (IC50)): 0.03 µg/mL (≈ 0.0901 µM) |
| Nc1ccn(C[C@@H](CO)OCP(=O)(O)O)c(=O)n1 [Cidolovir, reference compound] |  |  |  |  |  |  |  |  |  | >50 |  |  |  |  |  |  | >50 | 0.08 (≈ 0.287 µM) | 0.2 (≈ 0.716 µM) |  |
| Nc1ncnc2c1ncn2[C@@H]1C=C[C@H](CO)[C@@H](O)C1 [Compound 36, 9-[(1S,4R,5S)-5-Hydroxy-4-hydroxymethyl-2-cyclohexenyl]adenine] |  |  |  |  |  |  |  |  |  |  |  |  |  |  |  |  |  |  |  | melting point: 90 to 92 °C |
| Nc1nc2c(ncn2[C@@H]2C=C[C@H](CO)[C@@H](O)C2)c(=O)[nH]1 [D-cyclohexenyl G, 9-[(1S,4R,5S)-5-hydroxy-4-hydroxymethyl-2-cyclohexenyl]guanine] | 0.07 (≈ 0.252 µM) | 0.38 (≈ 1.37 µM) | 0.05 (≈ 0.18 µM) | 0.002 (≈ 0.00721 µM) | 0.07 (≈ 0.252 µM) | 0.01 (≈ 0.0361 µM) | 0.002 (≈ 0.00721 µM) | 0.004 (≈ 0.0144 µM) | 0.49 (≈ 1.77 µM) | >20 | 400 μg/ml | 400 μg/ml | 0.64 (≈ 2.31 µM) | 2.1 (≈ 7.57 µM) | 2.8 (≈ 10.1 µM) | >400 μg/ml | 11 | 0.6 (≈ 2.16 µM) | 0.8 (≈ 2.89 µM) | Selectivity index (VZV (OKA)): >30; Selectivity index (VZV (TK−07/1)): >10; Selectivity index (VZV (TK−YS/R)): >7; Selectivity index (HSV-2 (196)): >5.10^3; Selectivity index (HSV-1 (TK−KOS ACVf)): >1.10^3; Selectivity index (HSV-2 (G)): >8.10^3; Selectivity index (HSV-1 (KOS)): >2.10^5; Selectivity index (HSV-2 (Lyons)): >5.10^3; Selectivity index (HSV-1 (TK−/TKf VMW1837)): >4.10^4; Selectivity index (HSV-1 (F)): >2.10^5; Selectivity index (HSV-1 (McIntyre)): >1.10^5; Selectivity index (CMV (AD 169)): >30; Selectivity index (CMV (Davis)): >25; Selectivity index (VZV (YS); VZV (YS)): >40; Toxicity in four different cell lines (HeLa, Vero, E6SM, HEL): did not show toxicity |
| Nc1nc(O)c2ncn(COC(CO)CO)c2n1 [Ganciclovir, reference compound] | 0.001 (≈ 0.00392 µM) | 0.48 (≈ 1.88 µM) | 0.002 (≈ 0.00784 µM) | 0.001 (≈ 0.00392 µM) | 0.001 (≈ 0.00392 µM) | 0.01 (≈ 0.0392 µM) | 0.001 (≈ 0.00392 µM) | 0.001 (≈ 0.00392 µM) |  | >50 |  |  |  |  |  |  | >50 | 0.6 (≈ 2.35 µM) | 0.8 (≈ 3.13 µM) | Minimum cytotoxic concentration causing a microscopically detectable alteration of cell morphology ([2]; human): >100 μg/ml |
| Nc1nc2c(ncn2[C@H]2C=C[C@@H](CO)[C@H](O)C2)c(=O)[nH]1 [L-cyclohexenyl G, 9-[(1R,4S,5R)-5-Hydroxy-4-hydroxymethyl-2-cyclohexenyl]guanine] | 0.1 (≈ 0.361 µM) | 1.28 (≈ 4.62 µM) | 0.07 (≈ 0.252 µM) | 0.003 (≈ 0.0108 µM) | 0.07 (≈ 0.252 µM) | 0.01 (≈ 0.0361 µM) | 0.003 (≈ 0.0108 µM) | 0.004 (≈ 0.0144 µM) | 1.2 (≈ 4.33 µM) | >20 | 400 μg/ml | 400 μg/ml | 1.9 (≈ 6.85 µM) | 5.8 (≈ 20.9 µM) | 6.8 (≈ 24.5 µM) | >18 μg/ml | >20 | 1.5 (≈ 5.41 µM) | 1.7 (≈ 6.13 µM) | Selectivity index (VZV (OKA)): >10; Selectivity index (VZV (TK−07/1)): >3; Selectivity index (VZV (TK−YS/R)): >3; Selectivity index (HSV-2 (196)): >1.6 10^2; Selectivity index (HSV-1 (TK−KOS ACVf)): >12; Selectivity index (HSV-2 (G)): >2.2 10^2; Selectivity index (HSV-1 (KOS)): >5.10^3; Selectivity index (HSV-2 (Lyons)): >2.2 10^2; Selectivity index (HSV-1 (TK−/TKf VMW1837)): >1.6 10^3; Selectivity index (HSV-1 (F)): >5.10^3; Selectivity index (HSV-1 (McIntyre)): >4.10^3; Selectivity index (CMV (AD 169)): >13; Selectivity index (CMV (Davis)): >12; Selectivity index (VZV (YS); VZV (YS)): >16; Toxicity in four different cell lines (HeLa, Vero, E6SM, HEL): did not show toxicity; melting point: 255 °C (dec.); Potency relative to D-cyclohexene G (fold lower) (VZV and CMV): about 2 fold |
